Read-outs that look alike come from different tables or passages of the source.
Key:
[1] = target: T1, human eIF4E protein (Homo sapiens, UniProt P06730); experiment: Biochemical competitive binding assay (TR-FRET competition, EDA-m7GDP-ATTO-647N probe); conditions: read-out: hEIF4E TR-FRET IC50
T1 construct: purchased Novus NBP-45314
Method in brief: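 IC50 values come from 4-parameter fits of the normalized 665/620 nm TR-FRET ratio. Compound was first incubated 15 min with 4 nM recombinant His-eIF4E bound to 2.5 nM Eu-anti-His antibody, then 15 min with 5 nM m7GDP-ATTO-647N tracer, in pH 7.5 HEPES buffer with 100 mM KCl, Tween-20 and BSA.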

[2] = tested on: COLO 205 colorectal tumor cells; experiment: Tumor cell viability inhibition assay (CellTiter-Glo 2.0, 72 hours); assay type: cell-based; conditions: COLO 205 cell viability
Method in brief: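 IC50 derived by 4-parameter fitting after normalizing luminescence to DMSO and max-inhibition wells. Compounds tested as 11 concentrations in 4-fold steps on COLO 205 cells seeded at 1500 per well in RPMI-1640/10% FBS; ATP content measured with CellTiter-Glo 2.0 after 72 h.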

[3] = tested on: cyclin D1 protein levels in COLO 205 cells; experiment: Cyclin D1 cellular inhibition assay (HTRF, 6 hours); assay type: cell-based; conditions: 6 hours of compound treatment, Cyclin D1 protein levels by HTRF, read-out: COLO 205 6 h Cyclin D1 TR-FRET IC50
Procedure: The effect of compound treatment on cyclin D1 protein levels in COLO 205 cells was assessed, as follows. Test compound plates were prepared with a Tecan D300e Digital Dispenser as 11-point concentration-response curves with a final DMSO concentration of 1%. COLO 205 (ATCC, CCL-222) colorectal tumor cells were seeded to assay-ready plates in RPMI-1640 medium supplemented with 10% FBS at 20,000 cells in a volume of 6 microliters per well. After 6 hours of compound treatment, cells were lysed and Cyclin D1 protein levels were assessed by an HTRF assay (PerkinElmer #64CYCD1ITPEG), according to the manufacturer's protocol. Time-resolved fluorescence was measured using a Clariostar Plus microplate reader (BMG Labtech) or equivalent. After normalization to the average of DMSO control and maximum inhibition control wells, concentration-response data were plotted and standard 4-parameter curve fitting (GraphPad Prism v9.4.1) was utilized to determine IC50 values.

[4] = tested on: cap-dependent translation in Flp-In-293 reporter cells; experiment: Cellular cap-dependent translation inhibition assay (dual luciferase assay, DLA; Fluc/Rluc ratio, 24 hours); assay type: cell-based
[5] = Homo sapiens, Flp-In-293, 24 h, dual luciferase assay, Flp-In-293 reporter cells, 24 hours, Fluc/Rluc ratio, read-out: DLA 205 IC50
[6] = dual luciferase assay, Flp-In-293 reporter cells, 24 hours, Fluc/Rluc ratio, read-out: DLA 205 IC50

T1 sequence (P06730 whole entry): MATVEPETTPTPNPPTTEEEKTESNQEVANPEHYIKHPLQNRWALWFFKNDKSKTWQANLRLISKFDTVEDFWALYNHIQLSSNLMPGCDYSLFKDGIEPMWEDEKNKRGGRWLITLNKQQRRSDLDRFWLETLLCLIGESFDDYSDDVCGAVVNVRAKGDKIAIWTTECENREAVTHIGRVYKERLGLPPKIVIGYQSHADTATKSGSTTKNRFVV

IC50 [1] | IC50 ([2]; Homo sapiens, COLO 205, 72 h) | Compound | IC50 [4, 5] | further results
< 100 nM | < 5 µM | Cc1cc(-c2cc(Cl)ccc2OCCn2c(C)nc3c(c2=O)CC(N(C)Cc2cccs2)CC3)c2scc(C(=O)O)c2n1 (stereo not drawn) [Compound 197] | – | IC50 ([3]; Homo sapiens, COLO 205, 6 h): < 5 µM
< 100 nM | – | COc1cc(CN(C)C2CCc3nc(C)n(CCOc4ccc(Cl)cc4-c4cc(C)nc5c(C(=O)O)csc45)c(=O)c3C2)ccn1 (single isomer, unassigned) [Compound 218] | – | IC50 [2]: 5 to 20 µM; IC50 [3]: < 5 µM
< 100 nM | < 5 µM | Cc1cc(-c2cc(Cl)ccc2OCCn2c(C)nc3c(c2=O)CC(N2CC4COCC4C2)CC3)c2scc(C(=O)O)c2n1 (stereo not drawn) [Compound 19] | < 1000 nM | –
< 100 nM | < 5 µM | Cc1cc(-c2cc(Cl)ccc2OCCn2c(C)nc3c(c2=O)C[C@H](N2CC[C@H](F)C2)CC3)c2scc(C(=O)O)c2n1 (single isomer, unassigned) [Compound 311] | < 1000 nM | –
100 to 500 nM | > 20 µM | Cc1cc(-c2cc(Cl)ccc2OCCn2c(C)nc3c(c2=O)CC(N(C)C2(C(F)(F)F)CC2)CC3)c2scc(C(=O)O)c2n1 (stereo not drawn) [Compound 265] | 1000 to 5000 nM | –
< 100 nM | 5 to 20 µM | Cc1cc(-c2cc(Cl)ccc2OCCn2c(C)nc3c(c2=O)CC2(CC3)CCN(C3CC3)CC2)c2scc(C(=O)O)c2n1 [Compound 267, 7-(5-chloro-2-(2-(1-cyclopropyl-2′-methyl-4′-oxo-7′,8′-dihydro-4′H-spiro[piperidine-4,6′-quinazolin]-3′(5′H)-yl)ethoxy)phenyl)-5-methylthieno[3,2-b]pyridine-3-carboxylic acid] | < 1000 nM | –
< 100 nM | < 5 µM | COC1CCN(C2CCc3nc(C)n(CCOc4ccc(Cl)cc4-c4cc(C)nc5c(C(=O)O)csc45)c(=O)c3C2)CC1 (stereo not drawn) [Compound 12] | < 1000 nM | –
< 100 nM | < 5 µM | Cc1cc(-c2cc(Cl)ccc2OCCn2c(C)nc3c(c2=O)CC(N2CC(C(F)(F)F)C2)CC3)c2scc(C(=O)O)c2n1 (stereo not drawn) [Compound 90] | < 1000 nM | –
100 to 500 nM | – | Cc1cc(-c2cc(Cl)ccc2OCCn2c(C)nc3c(c2=O)CC(N(C)C2CC2)CC3)c2sccc2n1 (single isomer, unassigned) [Compound 307] | – | IC50 [2]: 5 to 20 µM; IC50 [4, 6]: 1000 to 5000 nM
< 100 nM | < 5 µM | Cc1cc(-c2cc(Cl)ccc2OCCn2c(C)nc3c(c2=O)CC(N2CCCCC2)CC3)c2ccc(C(=O)O)n2n1 (stereo not drawn) [Compound 45, 4-[5-chloranyl-2-[2-[2-methyl-4-oxidanylidene-6-(1-piperidyl)-5,6,7,8-tetrahydroquinazolin-3-yl]ethoxy]phenyl]-2-methyl-pyrrolo[1,2-b]pyridazine-7-carboxylic acid] | < 1000 nM | –
< 100 nM | – | Cc1cc(-c2cc(Cl)ccc2OCCn2c(C)nc3c(c2=O)CC(N(C)C2CC(F)(F)C2)CC3)c2scc(C(=O)NS(C)(=O)=O)c2n1 (single isomer, unassigned) [Compound 94] | – | IC50 [2]: < 5 µM; IC50 [4, 6]: < 1000 nM
< 100 nM | < 5 µM | Cc1cc(-c2cc(Cl)ccc2OCCn2c(C)nc3c(c2=O)C[C@@H](N2CCC[C@@H](F)C2)CC3)c2scc(C(=O)O)c2n1 (single isomer, unassigned) [Compound 324] | < 1000 nM | –
< 100 nM | > 20 µM | Cc1cc(-c2cc(Cl)ccc2OCCn2c(C)nc3c(c2=O)CC(N(C)C(=O)C2CCN(CC(F)(F)F)CC2)CC3)c2scc(C(=O)NS(C)(=O)=O)c2n1 (stereo not drawn) [Compound 82] | 1000 to 5000 nM | –
< 100 nM | > 20 µM | Cc1cc(-c2cc(Cl)ccc2OCCn2c(C)nc3c(c2=O)CC(N2CC4(CCN(C)C4)C2)CC3)c2scc(C(=O)O)c2n1 (stereo not drawn) [Compound 21] | > 5000 nM | –
< 100 nM | 5 to 20 µM | Cc1cc(-c2cc(Cl)ccc2OCCn2c(C)nc3c(c2=O)CC(N(C)S(C)(=O)=O)CC3)c2scc(C(=O)O)c2n1 (stereo not drawn) [Compound 37] | > 5000 nM | –
< 100 nM | 5 to 20 µM | Cc1cc(-c2cc(Cl)ccc2OCCn2c(C)nc3c(c2=O)CC(N(C)CC2(C)COC2)CC3)c2scc(C(=O)NS(C)(=O)=O)c2n1 (single isomer, unassigned) [Compound 304] | < 1000 nM | –
< 100 nM | < 5 µM | Cc1cc(-c2cc(Cl)ccc2OCCn2c(C)nc3c(c2=O)C[C@@H](N2CC[C@@H](F)C2)CC3)c2scc(C(=O)O)c2n1 (single isomer, unassigned) [Compound 329] | < 1000 nM | –
< 100 nM | < 5 µM | Cc1nc2c(c(=O)n1CC#Cc1ccc(Cl)cc1-c1ccnc3c(C(=O)NS(C)(=O)=O)csc13)C[C@H](N1CC[C@@H](F)C1)CC2 (single isomer, unassigned) [Compound 348] | < 1000 nM | –
< 100 nM | > 20 µM | Cc1cc(-c2cc(Cl)ccc2OCCn2c(C)nc3c(c2=O)CC(N(C)C2CNC2)CC3)c2scc(C(=O)O)c2n1 (stereo not drawn) [Compound 66, 7-[2-[2-[6-[azetidin-3-yl(methyl)amino]-2-methyl-4-oxidanylidene-5,6,7,8-tetrahydroquinazolin-3-yl]ethoxy]-5-chloranyl-phenyl]-5-methyl-thieno[3,2-b]pyridine-3-carboxylic acid; 2,2,2-tris(fluorenyl)acetic acid] | > 5000 nM | –
< 100 nM | < 5 µM | Cc1cc(-c2cc(Cl)ccc2OCCn2c(C)nc3c(c2=O)CC(N2CC(F)(F)C4(CC4)C2)CC3)c2scc(C(=O)O)c2n1 (stereo not drawn) [Compound 279] | < 1000 nM | –
100 to 500 nM | – | Cc1cc(-c2cc(Cl)ccc2OCCn2c(C)nc3c(c2=O)CC(N(CC(F)(F)F)C2CC2)CC3)c2scc(C(=O)O)c2n1 (single isomer, unassigned) [Compound 320] | – | IC50 [2]: 5 to 20 µM; IC50 [4, 6]: 1000 to 5000 nM
< 100 nM | 5 to 20 µM | Cc1cc(-c2cc(Cl)ccc2OCCn2c(C)nc3c(c2=O)CC2(CC3)CN(C3CC3)C2)c2scc(C(=O)O)c2n1 [Compound 270, 7-(5-chloro-2-(2-(1-cyclopropyl-2′-methyl-4′-oxo-7′,8′-dihydro-4′H-spiro[azetidine-3,6′-quinazolin]-3′(5′H)-yl)ethoxy)phenyl)-5-methylthieno[3,2-b]pyridine-3-carboxylic acid] | < 1000 nM | –
< 100 nM | < 5 µM | Cc1cc(-c2cc(Cl)ccc2OCCn2c(C)nc3c(c2=O)CC(N2CCC[C@H](F)C2)CC3)c2scc(C(=O)NS(C)(=O)=O)c2n1 (single isomer, unassigned) [Compound 264] | < 1000 nM | –
< 100 nM | < 5 µM | Cc1cc(-c2cc(Cl)ccc2OCCn2c(C)nc3c(c2=O)CC(N2CCC(F)(F)CC2)CC3)c2scc(C(=O)O)c2n1 (stereo not drawn) [Compound 32] | < 1000 nM | –
< 100 nM | 5 to 20 µM | Cc1cc(-c2cc(Cl)ccc2OCCn2c(C)nc3c(c2=O)CC(N(C)CC(F)(F)F)CC3)c2scc(C(=O)O)c2n1 (stereo not drawn) [Compound 54] | 1000 to 5000 nM | –
< 100 nM | < 5 µM | Cc1cc(-c2cc(Cl)ccc2OCCn2c(C)nc3c(c2=O)CC(N2CC(F)C2)CC3)c2scc(C(=O)O)c2n1 (stereo not drawn) [Compound 356] | < 1000 nM | –
100 to 500 nM | > 20 µM | Cc1cc(-c2cc(Cl)ccc2OCCn2c(C)nc3c(c2=O)CC(N2CC4COCC4C2)CC3)c2sccc2n1 (stereo not drawn) [Compound 78] | 1000 to 5000 nM | –
< 100 nM | – | Cc1cc(-c2cc(Cl)ccc2OCCn2c(C)nc3c(c2=O)CC(N2CC4COCC4C2)CC3)c2scc(C(=O)NS(C)(=O)=O)c2n1 (single isomer, unassigned) [Compound 89] | – | IC50 [2]: < 5 µM; IC50 [4, 6]: < 1000 nM
< 100 nM | < 5 µM | Cc1nc2c(c(=O)n1CC#Cc1ccc(Cl)cc1-c1ccnc3c(C(=O)O)csc13)CC(N(C)C1CC1)CC2 (stereo not drawn) [Compound 290] | < 1000 nM | –

Compound | IC50 [1] | IC50 ([2]; Homo sapiens, COLO 205, 72 h) | IC50 [4, 5] | further results
COC1CCc2nc(C)n(CCOc3ccc(Cl)cc3-c3cc(C)nc4c(C(=O)O)csc34)c(=O)c2C1 (stereo not drawn) [Compound 7] | 100 to 500 nM | – | – | IC50 ([2]; Homo sapiens): 5 to 20 µM; IC50 ([4]; Homo sapiens, Flp-In-293, 24 h, read-out: DLA 205 IC50, dual luciferase assay, Flp-In-293 reporter cells, 24 hours, Fluc/Rluc ratio): 1000 to 5000 nM
